The results in this text go back to US11466013B2 (Betta Pharmaceuticals Co., LTD, priority 2018, dated 2022).

In assay [1] the target is ERK1 (Homo sapiens, UniProt P27361). In words: Kinase assay (Caliper, FAM-labeled peptide), ERK1. In kind it is biochemical. The procedure: (§1) The compound was diluted to the desired concentration with DMSO, transferred 100 μL to a 96-well plate, and performed a gradient dilution 10 μL of compound from each well was taken and mixed with 90 μL of kinase buffer, and then transferred 5 μL from each well to a 384-well plate. Kinase and FAM-labeled peptide and ATP were added to 1× kinase alkaline buffer to obtain 2.5× enzyme solution and 2.5× peptide solution, 10 μL of 2.5× enzyme solution was added to the 384-well assay plate. After incubating for 10 minutes at room temperature, 10 μL of 2.5× peptide solution was added to the 384-well plate. After reacting for a specific time at […], 25 μL of termination buffer was added to stop reaction. After reading the collected data on Caliper, the data was converted to inhibition percentage. Inhibition percentage=(maximum value−conversion value)/(maximum value−minimum value)*100.
Chain of ERK1 (P27361 whole entry): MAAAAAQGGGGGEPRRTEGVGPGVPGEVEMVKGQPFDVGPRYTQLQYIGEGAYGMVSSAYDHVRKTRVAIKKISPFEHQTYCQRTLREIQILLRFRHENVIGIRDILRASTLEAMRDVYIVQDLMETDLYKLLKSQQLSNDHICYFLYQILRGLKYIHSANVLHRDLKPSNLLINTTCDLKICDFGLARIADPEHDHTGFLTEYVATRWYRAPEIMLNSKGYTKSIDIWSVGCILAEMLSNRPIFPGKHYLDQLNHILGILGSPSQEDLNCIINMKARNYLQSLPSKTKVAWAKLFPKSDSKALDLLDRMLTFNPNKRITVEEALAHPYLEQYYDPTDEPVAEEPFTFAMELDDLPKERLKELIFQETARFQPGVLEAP
(§2) The “maximum” is the DMSO control, the “minimum” indicates the low control.
(§3) Graphpad Prism software was used to perform curve fitting and obtain IC50 value.

Assay [2] deals with ERK2 (Homo sapiens, UniProt P28482). Put plainly: Kinase assay (Caliper, FAM-labeled peptide), ERK2. Type of assay: biochemical. The procedure: as §1, §2, §3
Chain of ERK2 (P28482 whole entry): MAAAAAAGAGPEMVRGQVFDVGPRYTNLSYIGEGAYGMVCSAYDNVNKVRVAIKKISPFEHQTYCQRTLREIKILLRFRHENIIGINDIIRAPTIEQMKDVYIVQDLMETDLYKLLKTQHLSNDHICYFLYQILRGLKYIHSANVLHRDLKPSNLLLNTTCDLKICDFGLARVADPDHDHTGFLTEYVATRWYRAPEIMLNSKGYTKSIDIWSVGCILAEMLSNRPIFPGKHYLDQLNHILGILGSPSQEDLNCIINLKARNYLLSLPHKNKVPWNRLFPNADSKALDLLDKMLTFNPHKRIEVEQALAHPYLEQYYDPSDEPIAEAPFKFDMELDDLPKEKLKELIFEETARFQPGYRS

Each structure is given as a SMILES string.

For the molecule `COC[C@H]1Cn2cc(-c3cc(NCC(C)(C)O)ncc3Cl)cc2C(=O)N1Cc1cc(F)ccc1CO` [Example 65, (R)-7-(5-chloro-2-((2-hydroxy-2-methylpropyl)amino)pyridine-4-yl)-2-(5-fluoro-2-(hydroxymethyl)benzyl)-3-(methoxymethyl)-3,4-dihydropyrrolo[1,2-a] pyrazine-1(2H)-one], the IC50 is 0.97 nM in assay [1] and 1.6 nM in assay [2].
Regarding `COC[C@H]1Cn2cc(-c3ccnc(NC4CCOCC4)c3)cc2C(=O)N1Cc1cc(F)ccc1CO` [Example 67, (R)-2-(5-fluoro-2-(hydroxymethyl)benzyl)-3-(methoxymethyl)-7-(2-((tetrahydro-2h-pyran-4-yl)amino)pyridine-4-yl)-3,4-dihydropyrrolo [1,2-a]pyrazine-1(2H)-one], the IC50 in assay [1] came to 1.6 nM; in assay [2], 1.2 nM.
With `COC[C@H]1Cn2cc(-c3cc(NC4CCC4)ncc3Cl)cc2C(=O)N1Cc1cc(F)ccc1CO` [Example 70, (R)-7-(5-chloro-2-(cyclobutylamino)pyridin-4-yl)-2-(5-fluoro-2-(hydroxymethyl)benzyl)-3-(methoxymethyl)-3,4-dihydropyrrolo[1,2-a] pyrazine-1(2H)-one], the results for the IC50 in assay [1] and in assay [2] were 1.8 nM and 2 nM, respectively.
The like results for `COCC1Cn2cc(-c3cc(NC4CCN(C(C)C)CC4)ncc3Cl)cc2C(=O)N1Cc1cc(F)ccc1CO` (stereo not drawn) [Example 73, 7-(5-chloro-2-((1-isopropylpiperidin-4-yl)amino)pyridine-4-yl)-2-(5-fluoro-2-(hydroxymethyl)benzyl)-3-(methoxymethyl)-3,4-dihydropyrrolo[1,2-a] pyrazine-1(2H)-one] were, in that order, 3.1 nM and 0.9 nM.
For `COC[C@H]1Cn2cc(-c3cc(NC4CC4)ncc3Cl)cc2C(=O)N1Cc1cc(F)ccc1CO` [Example 74, (R)-7-(5-chloro-2-(cyclopropylamino)pyridin-4-yl)-2-(5-fluoro-2-(hydroxymethyl)-benzyl)-3-(methoxymethyl)-3,4-dihydropyrrolo[1,2-a] pyrazine-1(2H)-one] the same measures were 1.2 nM and 1.3 nM.
Regarding `COC[C@H]1Cn2cc(-c3cc(NC4CCCC4)ncc3Cl)cc2C(=O)N1Cc1cc(F)ccc1CO` [Example 77, (R)-7-(5-chloro-2-(cyclopentylamino)pyridin-4-yl)-2-(5-fluoro-2-(hydroxymethyl)benzyl)-3-(methoxymethyl)-3,4-dihydropyrrolo[1,2-a] pyrazine-1(2H)-one], the IC50 is 1.1 nM in assay [1] and 1.5 nM in assay [2].
Turning to `COC[C@H]1Cn2cc(-c3cc(NC4CCOC(C)(C)C4)ncc3Cl)cc2C(=O)N1Cc1cc(F)ccc1CO` (stereo partly drawn) [Example 78, (3R)-7-(5-chloro-2-((2,2-dimethyltetrahydro-2h-pyran-4-yl)amino)pyridine-4-yl)-2-(5-fluoro-2-(hydroxymethyl)benzyl)-3-(methoxymethyl)-3,4-dihydropyrrolo[1,2-a] pyrazine-1(2H)-one], the IC50 came to 0.87 nM in assay [1] and 1.5 nM in assay [2].
For `COC[C@H]1Cn2cc(-c3cc(NC4COC(C)(C)C4)ncc3Cl)cc2C(=O)N1Cc1cc(F)ccc1CO` (stereo partly drawn) [Example 79, (3R)-7-(5-chloro-2-((5,5-dimethyltetrahydrofuran-3-yl)amino)pyridine-4-yl)-2-(5-fluoro-2-(hydroxymethyl)benzyl)-3-(methoxymethyl)-3,4-dihydropyrrolo[1,2-a] pyrazine-1(2H)-one] the same measures were 0.36 nM and 0.39 nM.
The like results for `COC[C@H]1Cn2cc(-c3cc(Nc4cc(C)on4)ncc3Cl)cc2C(=O)N1Cc1cc(F)ccc1CO` [Example 80, (R)-7-(5-chloro-2-((5-Methylisoxazole-3-yl)amino)pyridine-4-yl)-2-(5-fluoro-2-(hydroxymethyl)benzyl)-3-(methoxymethyl)-3,4-dihydropyrrolo[1,2-a] pyrazine-1(2H)-one] were, in that order, 0.73 nM and 0.68 nM.
